Measurements as given in PubChem BioAssay (NCI).
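Where inhibition never reached the appropriate level, the endpoint shown equals the highest concentration tested. Otherwise, values were interpolated linearly from a five-concentration, 48-hour dose response in 96-well plates. Here, GI50 denotes the concentration required for 50% inhibition of growth. At the TGI there is no net growth.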

What was measured:
Test in all cases: DTP human tumour cell line panel, 48 h
T-47D breast = test system: T-47D breast
HCT-116 colon = test system: HCT-116 colon
HOP-92 NSCLC = test system: HOP-92 NSCLC
BT-549 breast = test system: BT-549 breast
HT29 colon = test system: HT29 colon
K-562 leukemia = test system: K-562 leukemia
HCT-15 colon = test system: HCT-15 colon
IGROV1 ovarian = test system: IGROV1 ovarian
NCI-H226 lung = test system: NCI-H226 lung
RPMI-8226 leukemia = test system: RPMI-8226 leukemia
SN12C renal = test system: SN12C renal
A498 renal = test system: A498 renal
OVCAR-8 ovarian = test system: OVCAR-8 ovarian
MDA-MB-231 breast = test system: MDA-MB-231 breast
DU-145 prostate = test system: DU-145 prostate
EKVX NSCLC = test system: EKVX NSCLC
A549 NSCLC = test system: A549 NSCLC
UACC-62 melanoma = test system: UACC-62 melanoma
SF-268 CNS = test system: SF-268 CNS
ACHN renal = test system: ACHN renal
MDA-MB-468 breast = test system: MDA-MB-468 breast
SK-OV-3 ovarian = test system: SK-OV-3 ovarian
CCRF-CEM leukemia = test system: CCRF-CEM leukemia
UO-31 renal = test system: UO-31 renal
CAKI-1 renal = test system: CAKI-1 renal
NCI-H23 lung = test system: NCI-H23 lung
LOX IMVI melanoma = test system: LOX IMVI melanoma
TK-10 renal = test system: TK-10 renal
RXF 393 renal = test system: RXF 393 renal
MALME-3M melanoma = test system: MALME-3M melanoma
MOLT-4 leukemia = test system: MOLT-4 leukemia
SF-295 CNS = test system: SF-295 CNS
UACC-257 melanoma = test system: UACC-257 melanoma
OVCAR-5 ovarian = test system: OVCAR-5 ovarian
HL-60(TB) leukemia = test system: HL-60(TB) leukemia
KM12 colon = test system: KM12 colon
COLO 205 colon = test system: COLO 205 colon
NCI-H522 lung = test system: NCI-H522 lung
MDA-MB-435 = test system: MDA-MB-435
SK-MEL-2 melanoma = test system: SK-MEL-2 melanoma
U251 CNS = test system: U251 CNS
SK-MEL-5 melanoma = test system: SK-MEL-5 melanoma
OVCAR-3 ovarian = test system: OVCAR-3 ovarian
NCI-H460 lung = test system: NCI-H460 lung
SNB-75 CNS = test system: SNB-75 CNS
PC-3 prostate = test system: PC-3 prostate
SNB-19 CNS = test system: SNB-19 CNS
M14 melanoma = test system: M14 melanoma
SK-MEL-28 melanoma = test system: SK-MEL-28 melanoma
786-0 renal = test system: 786-0 renal
HS 578T breast = test system: HS 578T breast
NCI/ADR-RES ovarian = test system: NCI/ADR-RES ovarian
SF-539 CNS = test system: SF-539 CNS
MCF7 breast = test system: MCF7 breast
SW-620 colon = test system: SW-620 colon
HOP-62 NSCLC = test system: HOP-62 NSCLC
HCC-2998 colon = test system: HCC-2998 colon
OVCAR-4 ovarian = test system: OVCAR-4 ovarian
SR leukemia = test system: SR leukemia

O=C(N/N=C/c1c[nH]c2ccccc12)Nc1ccc(F)c(Cl)c1
GI50 (T-47D breast): 11.5 µM
TGI (T-47D breast): 32 µM
GI50 (HCT-116 colon): 1490 nM
TGI (HCT-116 colon): 2840 nM
GI50 (HOP-92 NSCLC): 2040 nM
TGI (HOP-92 NSCLC): 6.59 µM
GI50 (BT-549 breast): 312 nM
TGI (BT-549 breast): 1540 nM
GI50 (HT29 colon): 12.7 µM
TGI (HT29 colon): 25.3 µM
GI50 (K-562 leukemia): 1860 nM
TGI (K-562 leukemia): 17.4 µM
GI50 (HCT-15 colon): 5.13 µM
TGI (HCT-15 colon): 17.9 µM
GI50 (IGROV1 ovarian): 7.6 µM
TGI (IGROV1 ovarian): 21.7 µM
GI50 (NCI-H226 lung): 10.3 µM
TGI (NCI-H226 lung): 34.7 µM
GI50 (RPMI-8226 leukemia): 1480 nM
TGI (RPMI-8226 leukemia): 9.26 µM
GI50 (SN12C renal): 11.2 µM
TGI (SN12C renal): 23.2 µM
GI50 (A498 renal): 15.4 µM
TGI (A498 renal): 30.2 µM
GI50 (OVCAR-8 ovarian): 14.3 µM
TGI (OVCAR-8 ovarian): 31.6 µM
GI50 (MDA-MB-231 breast): 11.8 µM
TGI (MDA-MB-231 breast): 24 µM
GI50 (DU-145 prostate): 14.4 µM
TGI (DU-145 prostate): 27.4 µM
GI50 (EKVX NSCLC): 13.8 µM
TGI (EKVX NSCLC): 28.6 µM
GI50 (A549 NSCLC): 12.7 µM
TGI (A549 NSCLC): 26.3 µM
GI50 (UACC-62 melanoma): 10.8 µM
TGI (UACC-62 melanoma): 22.6 µM
GI50 (SF-268 CNS): 8.09 µM
TGI (SF-268 CNS): 20.9 µM
GI50 (ACHN renal): 14.6 µM
TGI (ACHN renal): 27.7 µM
GI50 (MDA-MB-468 breast): 1980 nM
TGI (MDA-MB-468 breast): 7.74 µM
GI50 (SK-OV-3 ovarian): 12.9 µM
TGI (SK-OV-3 ovarian): 26.8 µM
GI50 (CCRF-CEM leukemia): 604 nM
TGI (CCRF-CEM leukemia): 11.7 µM
GI50 (UO-31 renal): 5.01 µM
TGI (UO-31 renal): 19.4 µM
GI50 (CAKI-1 renal): 14.8 µM
TGI (CAKI-1 renal): 28 µM
GI50 (NCI-H23 lung): 13.5 µM
TGI (NCI-H23 lung): 27.2 µM
GI50 (LOX IMVI melanoma): 11.2 µM
TGI (LOX IMVI melanoma): 23.2 µM
GI50 (TK-10 renal): 22.8 µM
TGI (TK-10 renal): 44.3 µM
GI50 (RXF 393 renal): 3.97 µM
TGI (RXF 393 renal): 15.5 µM
GI50 (MALME-3M melanoma): 12.6 µM
TGI (MALME-3M melanoma): 25.1 µM
GI50 (MOLT-4 leukemia): 1440 nM
TGI (MOLT-4 leukemia): 11.8 µM
GI50 (SF-295 CNS): 14.4 µM
TGI (SF-295 CNS): 27.4 µM
GI50 (UACC-257 melanoma): 13.6 µM
TGI (UACC-257 melanoma): 26.4 µM
GI50 (OVCAR-5 ovarian): 13.5 µM
TGI (OVCAR-5 ovarian): 26.3 µM
GI50 (HL-60(TB) leukemia): 3.44 µM
TGI (HL-60(TB) leukemia): 18.8 µM
GI50 (KM12 colon): 8.76 µM
TGI (KM12 colon): 21 µM
GI50 (COLO 205 colon): 14.1 µM
TGI (COLO 205 colon): 27.1 µM
GI50 (NCI-H522 lung): 1680 nM
TGI (NCI-H522 lung): 8.35 µM
GI50 (MDA-MB-435): 3.35 µM
TGI (MDA-MB-435): 12.6 µM
GI50 (SK-MEL-2 melanoma): 10.7 µM
TGI (SK-MEL-2 melanoma): 22.6 µM
GI50 (U251 CNS): 13.3 µM
TGI (U251 CNS): 26 µM
GI50 (SK-MEL-5 melanoma): 8.65 µM
TGI (SK-MEL-5 melanoma): 20.8 µM
GI50 (OVCAR-3 ovarian): 11.5 µM
TGI (OVCAR-3 ovarian): 23.6 µM
GI50 (NCI-H460 lung): 13 µM
TGI (NCI-H460 lung): 26.3 µM
GI50 (SNB-75 CNS): 11.8 µM
TGI (SNB-75 CNS): 24 µM
GI50 (PC-3 prostate): 3.12 µM
TGI (PC-3 prostate): 14.5 µM
GI50 (SNB-19 CNS): 14.9 µM
TGI (SNB-19 CNS): 28.1 µM
GI50 (M14 melanoma): 1570 nM
TGI (M14 melanoma): 3.44 µM
GI50 (SK-MEL-28 melanoma): 12.5 µM
TGI (SK-MEL-28 melanoma): 25 µM
GI50 (786-0 renal): 1370 nM
TGI (786-0 renal): 3.27 µM
GI50 (HS 578T breast): 13.7 µM
TGI (HS 578T breast): 39.7 µM
GI50 (NCI/ADR-RES ovarian): 6.05 µM
TGI (NCI/ADR-RES ovarian): 25 µM
GI50 (SF-539 CNS): 10.1 µM
TGI (SF-539 CNS): 21.6 µM
GI50 (MCF7 breast): 6.47 µM
TGI (MCF7 breast): 23.1 µM
GI50 (SW-620 colon): 10.9 µM
TGI (SW-620 colon): 22.8 µM
GI50 (HOP-62 NSCLC): 13.1 µM
TGI (HOP-62 NSCLC): 25.8 µM
GI50 (HCC-2998 colon): 11.7 µM
TGI (HCC-2998 colon): 23.9 µM
GI50 (OVCAR-4 ovarian): 12.8 µM
TGI (OVCAR-4 ovarian): 28.7 µM
GI50 (SR leukemia): 2200 nM
TGI (SR leukemia): 13.3 µM
